Test system: HaCaT cells
Assay: Relief of 5-FU proliferative toxicity to HaCaT cells (CCK-8 cell survival)
Type: cell-based
Conditions: for Cell Survival Rate (increased percentage of cell survival compared with the Group of 5-FU): 5-Fu 20 μM, HaCaT cells
Experimental: The cultured skin cell HaCaTs were digested, counted, and inoculated into a 96-well plate with 5000-10000 cells in each well. After 24 h of culture, the wells were divided into Group of blank solvent control, Group of 5-FU, Group of 5-FU+thymidine derivative, Group of 5-FU+the combination of thymidine derivative and uridine derivative. […] adding a solution of 5-FU and a solution of thymidine derivative (the final concentrations of 5-FU and thymidine derivative are shown in Table 3, the solution of thymidine is an aqueous solution, while the solutions of thymidine derivatives are all DMSO solutions); Group of 5-FU+the combination of thymidine derivative and uridine derivative: adding a solution of 5-FU and a mixed solution of thymidine derivative and uridine derivative (the final concentrations of the solution of 5-FU and the mixed solution of thymidine derivative+uridine derivative are shown in Table 3, the solution of thymidine is an aqueous solution, while the mixed solutions of thymidine derivative+uridine derivative are all DMSO solutions); Group of blank solvent control: adding the same type of solution as those of the corresponding Group of 5-FU or Group of 5-FU+thymidine derivative (or the mixed solution of thymidine derivative+uridine derivative) in equal volume. Group of blank solvent control was used as control to exclude the influence of the solvents in Group of 5-FU and Group of 5-FU+thymidine derivative (or the mixed solution of thymidine derivative+uridine derivative) on the results. After additional 48 hours of culture, a Cell Counting Kit-8 (CCK-8) detection kit (C0037, purchased from Shanghai Beyotime Biotechnology) is used to determine the cell survival rate, thereby calculating the proliferative toxicity of 5-Fu/5-DFUR on cells and the relieving effect of the thymidine derivative (or the mixed solution of thymidine derivative+uridine derivative) on the proliferative toxicity. Using GraphPad Prism 6.0 software, the results were statistically analyzed by t-test and plotted.
Table 3 lists the combinations of 5-FU and thymidine derivative (or the mixed solution of thymidine derivative+uridine derivative), and the corresponding experimental results (wherein the data in the column of cell survival indicate the corresponding increased percentage of the cell survivals of Group of 5-FU+thymidine derivative or Group of 5-FU+the combination of thymidine derivative and uridine derivative compared with the Group of 5-FU). FIGS. 3-10 list the experimental results of several representative compounds.
The effect of thymidine derivative or a combination of thymidine derivative and uridine derivative on relieving the proliferative toxicity of a chemotherapeutical drug (5-FU) to HaCaT cells was tested according to the method in Examples 2-29. The test thymidine derivative or the combination of thymidine derivative and uridine derivative, as well as the final concentration of the test compounds were shown in Table 7.
Table 7 lists the combinations of 5-FU and thymidine derivative (or the mixed solution of thymidine derivative+uridine derivative), and the corresponding experimental results (wherein the data in the column of cell survival indicate the corresponding increased percentage of the cell survivals of Group of 5-FU+thymidine derivative or Group of 5-FU+the combination of thymidine derivative and uridine derivative compared with the Group of 5-FU). FIGS. 15-21 list the experimental results of several exemplary compounds.

[1] = selected compound final concentration 12.5 μM
[2] = selected compound final concentration 25 μM
[3] = selected compound final concentration 50 μM
[4] = selected compound final concentration 100 μM
[5] = selected compound final concentration 0.8 μM
[6] = selected compound final concentration 1.6 μM
[7] = selected compound final concentration 3.13 μM
[8] = selected compound final concentration 6.25 μM

SMILES: Cc1cn([C@H]2C[C@H](O)[C@@H](COC(=O)C3CCn4c(C(=O)c5ccccc5)ccc43)O2)c(=O)[nH]c1=O (stereo partly shown) [T34]
- Cell Survival Rate (increased percentage of cell survival compared with the Group of 5-FU) [1]: 28%-35%
- Cell Survival Rate (increased percentage of cell survival compared with the Group of 5-FU) [2]: 43%-51%
- Cell Survival Rate (increased percentage of cell survival compared with the Group of 5-FU) [3]: 69%-77%
- Cell Survival Rate (increased percentage of cell survival compared with the Group of 5-FU) [4]: 67%-74%

SMILES: COc1ccc2c(c1)c(CC(=O)OC[C@H]1O[C@@H](n3cc(C)c(=O)[nH]c3=O)C[C@@H]1O)c(C)n2C(=O)c1ccc(Cl)cc1 [T38]
- Cell Survival Rate (increased percentage of cell survival compared with the Group of 5-FU) [5]: 13%-21%
- Cell Survival Rate (increased percentage of cell survival compared with the Group of 5-FU) [6]: 29%-38%
- Cell Survival Rate (increased percentage of cell survival compared with the Group of 5-FU) [7]: 38%-47%
- Cell Survival Rate (increased percentage of cell survival compared with the Group of 5-FU) [8]: 46%-55%
- Cell Survival Rate (increased percentage of cell survival compared with the Group of 5-FU) [1]: 53%-60%
- Cell Survival Rate (increased percentage of cell survival compared with the Group of 5-FU) [2]: 58%-65%
- Cell Survival Rate (increased percentage of cell survival compared with the Group of 5-FU) [3]: 67%-75%
- Cell Survival Rate (increased percentage of cell survival compared with the Group of 5-FU) [4]: 55%-63%

SMILES: Cc1cn([C@H]2C[C@H](O)[C@@H](COC(=O)Cc3ccccc3Nc3c(Cl)cccc3Cl)O2)c(=O)[nH]c1=O [T39]
- Cell Survival Rate (increased percentage of cell survival compared with the Group of 5-FU) [5]: 36%-43%
- Cell Survival Rate (increased percentage of cell survival compared with the Group of 5-FU) [6]: 58%-66%
- Cell Survival Rate (increased percentage of cell survival compared with the Group of 5-FU) [7]: 64%-71%
- Cell Survival Rate (increased percentage of cell survival compared with the Group of 5-FU) [8]: 67%-74%
- Cell Survival Rate (increased percentage of cell survival compared with the Group of 5-FU) [1]: 65%-72%
- Cell Survival Rate (increased percentage of cell survival compared with the Group of 5-FU) [2]: 69%-77%
- Cell Survival Rate (increased percentage of cell survival compared with the Group of 5-FU) [3]: 69%-77%
- Cell Survival Rate (increased percentage of cell survival compared with the Group of 5-FU) [4]: 75%-83%

SMILES: COc1ccc2cc([C@H](C)C(=O)O[C@H]3C[C@H](n4cc(C)c(=O)[nH]c4=O)O[C@@H]3CO)ccc2c1 [T42]
- Cell Survival Rate (increased percentage of cell survival compared with the Group of 5-FU) [5]: 38%-45%
- Cell Survival Rate (increased percentage of cell survival compared with the Group of 5-FU) [6]: 59%-67%
- Cell Survival Rate (increased percentage of cell survival compared with the Group of 5-FU) [7]: 85%-93%
- Cell Survival Rate (increased percentage of cell survival compared with the Group of 5-FU) [8]: 85%-92%
- Cell Survival Rate (increased percentage of cell survival compared with the Group of 5-FU) [1]: 58%-66%
- Cell Survival Rate (increased percentage of cell survival compared with the Group of 5-FU) [2]: 68%-75%
- Cell Survival Rate (increased percentage of cell survival compared with the Group of 5-FU) [3]: 66%-74%

SMILES: Cc1cn([C@H]2C[C@H](OC(=O)C(C)c3cccc(Oc4ccccc4)c3)[C@@H](CO)O2)c(=O)[nH]c1=O (stereo partly shown) [T43]
- Cell Survival Rate (increased percentage of cell survival compared with the Group of 5-FU) [5]: 23%-31%
- Cell Survival Rate (increased percentage of cell survival compared with the Group of 5-FU) [6]: 49%-56%
- Cell Survival Rate (increased percentage of cell survival compared with the Group of 5-FU) [7]: 72%-79%
- Cell Survival Rate (increased percentage of cell survival compared with the Group of 5-FU) [8]: 91%-98%
- Cell Survival Rate (increased percentage of cell survival compared with the Group of 5-FU) [1]: 125%-133%
- Cell Survival Rate (increased percentage of cell survival compared with the Group of 5-FU) [2]: 99%-106%
- Cell Survival Rate (increased percentage of cell survival compared with the Group of 5-FU) [3]: 100%-107%
- Cell Survival Rate (increased percentage of cell survival compared with the Group of 5-FU) [4]: 34%-41%

SMILES: Cc1cn([C@H]2C[C@H](OC(=O)[C@@H](C)c3ccc(CC(C)C)cc3)[C@@H](CO)O2)c(=O)[nH]c1=O [T44]
- Cell Survival Rate (increased percentage of cell survival compared with the Group of 5-FU) [8]: 13%-20%
- Cell Survival Rate (increased percentage of cell survival compared with the Group of 5-FU) [1]: 27%-35%
- Cell Survival Rate (increased percentage of cell survival compared with the Group of 5-FU) [2]: 53%-60%
- Cell Survival Rate (increased percentage of cell survival compared with the Group of 5-FU) [3]: 69%-76%

SMILES: Cc1cn([C@H]2C[C@H](OC(=O)C(C)c3cccc(Oc4ccccc4)c3)[C@@H](COC(=O)C(C)c3cccc(Oc4ccccc4)c3)O2)c(=O)[nH]c1=O (stereo partly shown) [T46]
- Cell Survival Rate (increased percentage of cell survival compared with the Group of 5-FU) [7]: 27%-34%
- Cell Survival Rate (increased percentage of cell survival compared with the Group of 5-FU) [8]: 34%-41%
- Cell Survival Rate (increased percentage of cell survival compared with the Group of 5-FU) [1]: 48%-55%
- Cell Survival Rate (increased percentage of cell survival compared with the Group of 5-FU) [2]: 61%-68%
- Cell Survival Rate (increased percentage of cell survival compared with the Group of 5-FU) [3]: 65%-72%
- Cell Survival Rate (increased percentage of cell survival compared with the Group of 5-FU) [4]: 75%-83%
- Cell Survival Rate (increased percentage of cell survival compared with the Group of 5-FU) (selected compound final concentration 200 μM): 54%-62%

SMILES: Cc1cn([C@H]2C[C@H](OC(=O)[C@@H](C)c3ccc(CC(C)C)cc3)[C@@H](COC(=O)[C@@H](C)c3ccc(CC(C)C)cc3)O2)c(=O)[nH]c1=O [T47]
- Cell Survival Rate (increased percentage of cell survival compared with the Group of 5-FU) (selected compound final concentration 8 μM): 21%-28%
- Cell Survival Rate (increased percentage of cell survival compared with the Group of 5-FU) (selected compound final concentration 16 μM): 35%-42%
- Cell Survival Rate (increased percentage of cell survival compared with the Group of 5-FU) (selected compound final concentration 32 μM): 49%-56%
- Cell Survival Rate (increased percentage of cell survival compared with the Group of 5-FU) (selected compound final concentration 62.5 μM): 63%-71%
- Cell Survival Rate (increased percentage of cell survival compared with the Group of 5-FU) (selected compound final concentration 125 μM): 64%-72%
- Cell Survival Rate (increased percentage of cell survival compared with the Group of 5-FU) (selected compound final concentration 250 μM): 44%-51%
- Cell Survival Rate (increased percentage of cell survival compared with the Group of 5-FU) (selected compound final concentration 500 μM): 24%-31%

SMILES: Cc1cn([C@H]2C[C@H](O)[C@@H](CO)O2)c(=O)[nH]c1=O [thymidine]
- activation at 200 µM (Homo sapiens, HaCaT, increase vs Group of 5-FU, 5-FU 20 μM, compound 200 μM, 48 h, read-out: Cell Survival Rate): 3 to 8%
- activation at 1000 µM (Homo sapiens, HaCaT, increase vs Group of 5-FU, 5-FU 20 μM, compound 1000 μM, 48 h, read-out: Cell Survival Rate): 15 to 23%
- activation at 1500 µM (Homo sapiens, HaCaT, increase vs Group of 5-FU, 5-FU 20 μM, compound 1500 μM, 48 h, read-out: Cell Survival Rate): 11 to 17%
- activation at 2000 µM (Homo sapiens, HaCaT, increase vs Group of 5-FU, 5-FU 20 μM, compound 2000 μM, 48 h, read-out: Cell Survival Rate): 1 to 6%
- activation at 3000 µM (Homo sapiens, HaCaT, increase vs Group of 5-FU, 5-FU 20 μM, compound 3000 μM, 48 h, read-out: Cell Survival Rate): -25 to 20%
